Test results from patent publication US6642250B2, “1,8-naphthyridin-2(1H)-one derivatives” (Grelan Pharmaceutical Co., Ltd., priority 1999, dated 2003).

What was measured:
[1] = tested on: PDE I; experiment: PDE inhibition, type I PDE (cGMP substrate, calmodulin/CaCl2 added); format: biochemical; details: PDE I from porcine hearts, cGMP 1 μM; read-out: Inhibition of PDE Isoenzymes (IC50) I
Protocol: (§1) The assays for PDE activity were conducted according to Nicholson et al. method (Br. J. Pharmacol., 97, 889 (1989)).
(§2) Among PDE isozymes, type I, II, III and IV PDEs as used herein were separated from porcine hearts by using an anion exchange chromatography. Type V PDE was also separated from porcine aortae with an anion exchange chromatography and used herein.
(§3) Each PDE isozyme was admixed with ethylene glycol (EG) to adjust the final EG concentration to 30%, then stored at −20° C. and diluted when used. The enzymatic activity for PDE I and V was measured using cGMP as a substrate while that for POE II, III and IV was measured using cAMP.
(§4) [^3H]-cAMP (962 GBq/mmol; Amersham, 25 μl (100,000 cpm)) or [^3H]-cGMP (962 GBq/mmol; Amersham, 25 μl (100,000 cpm)) was added together with each PDE isozyme (25 μl) to an incubation buffer solution with the composition given below to adjust the total volume to 250 μl. Each test compound was dissolved in DMSO to adjust the final concentration to 1% (2.5 μl/tube).
(§5) Incubation buffer solution (pH7.5):
(§6) Tris-HCl (50 mM), magnesium chloride (6 mM), dithiothreitol
(§7) (2.5 mM), 5-nucleotidase (4 μg/ml), bovine serum albumin
(§8) (0.23 mg/ml), and cAMP (1 μM) [or cGMP (1 μM)]
(§9) A mixture of the aforementioned test compound solution and the buffer solution was incubated at 30° C. for 20 minutes. The reaction was quenched by admixing with 1 ml of anion exchange resin slurry (AG1-X8, 200-400 meshes, chloride form; Bio-Rad) to absorb unreacted substrates.
(§10) After the reaction stopped, the mixture was centrifuged at 200×g for 10 minutes, and the resulting supernatant was collected with vials in 250 μl aliquots. To each vial was added 5 ml of ACS-II (scintillator, Amersham). The radioactivity was measured with a liquid scintillator counter for [^3H]-adenosine or [^3H]-guanosine and set as the PDE activity. The measurements were conducted under conditions wherein the enzymatic activity was elevated by adding calmodulin (20 U/ml; Amersham) and calcium chloride (0.1 mM) for PDE-I and cGMP (1 μM) for PDE II, respectively.
(§11) The % inhibition was calculated for test compounds, and IC50 (the concentration of each test compound required for 50% inhibition) was obtained by Probit method. The aforementioned rolipram ((−)-isomer, optical purity: 91% e.e.) known as the PDE IV inhibitor in the prior art was used for the reference compound in this assay.

[2] = biological target: T1, PDE II (Sus scrofa, UniProt F1SUV3); experiment: PDE inhibition, type II PDE (cAMP substrate, cGMP added); format: biochemical; details: PDE II from porcine hearts, cAMP 1 μM; read-out: Inhibition of PDE Isoenzymes (IC50) II
T1 sequence (F1SUV3 1-945): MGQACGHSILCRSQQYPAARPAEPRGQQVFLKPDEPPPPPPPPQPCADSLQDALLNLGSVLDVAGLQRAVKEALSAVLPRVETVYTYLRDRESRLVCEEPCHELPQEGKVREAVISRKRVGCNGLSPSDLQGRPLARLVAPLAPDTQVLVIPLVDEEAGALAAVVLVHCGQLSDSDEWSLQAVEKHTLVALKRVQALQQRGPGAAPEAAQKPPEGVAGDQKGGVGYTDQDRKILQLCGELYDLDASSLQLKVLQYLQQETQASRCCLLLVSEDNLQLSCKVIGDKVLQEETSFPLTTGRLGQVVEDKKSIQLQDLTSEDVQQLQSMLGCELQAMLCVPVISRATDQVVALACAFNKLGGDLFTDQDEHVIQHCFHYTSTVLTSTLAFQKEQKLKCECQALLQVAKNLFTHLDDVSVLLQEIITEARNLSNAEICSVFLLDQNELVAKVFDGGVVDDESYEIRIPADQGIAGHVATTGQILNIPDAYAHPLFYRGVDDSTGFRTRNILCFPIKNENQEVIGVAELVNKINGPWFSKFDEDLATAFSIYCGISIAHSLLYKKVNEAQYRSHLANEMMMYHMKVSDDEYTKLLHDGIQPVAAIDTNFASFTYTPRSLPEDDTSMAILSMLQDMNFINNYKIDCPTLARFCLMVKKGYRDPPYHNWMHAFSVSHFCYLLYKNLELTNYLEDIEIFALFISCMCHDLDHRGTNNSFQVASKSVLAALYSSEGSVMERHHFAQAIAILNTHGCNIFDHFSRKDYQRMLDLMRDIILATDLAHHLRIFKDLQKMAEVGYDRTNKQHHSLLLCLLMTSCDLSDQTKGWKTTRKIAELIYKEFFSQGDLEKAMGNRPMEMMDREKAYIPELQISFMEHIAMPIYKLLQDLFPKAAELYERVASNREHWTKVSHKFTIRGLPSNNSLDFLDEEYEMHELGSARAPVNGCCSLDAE
Protocol: as §1, §2, §3, §4, §5, §6, §7, §8, §9, §10, §11

[3] = tested on: T2, PDE IV; experiment: PDE inhibition, type IV PDE (cAMP substrate); format: biochemical; details: PDE IV from porcine hearts, cAMP 1 μM; read-out: Inhibition of PDE Isoenzymes (IC50) IV
T2 construct: other: PDE IV from porcine hearts, cAMP 1 μM
Protocol: as §1, §2, §3, §4, §5, §6, §7, §8, §9, §10, §11
Further, for a comparison with compounds as disclosed in JP, A, 63-159382 (1988), the PDE-inhibiting activity was also measured for Compounds A and D in Table 1 of JP, A, 63-159382 (1988).

[4] = biological target: T3, PDE V (Sus scrofa, UniProt A0A287B475); experiment: PDE inhibition, type V PDE (cGMP substrate); format: biochemical; details: PDE V from porcine aortae, cGMP 1 μM; read-out: Inhibition of PDE Isoenzymes (IC50) V
T3 construct: Type V PDE was also separated from porcine aortae with an anion exchange chromatography and used herein
Protocol: as §1, §2, §3, §4, §5, §6, §7, §8, §9, §10, §11

| Structure (SMILES) | melting point [°C] | IC50 [1] [µM] | IC50 [2] [µM] | IC50 [3] [µM] | IC50 [4] [µM] |
| --- | --- | --- | --- | --- | --- |
| O=c1c(Cc2ccccn2)cc2cccnc2n1-c1cccc([N+](=O)[O-])c1 [Example 1, 1-(3-Nitrophenyl)-3-(pyridin-2-ylmethyl)-1,8-naphthyridin-2(1H)-one] | 229 to 231 |  |  |  |  |
| N#Cc1cccc(-n2c(=O)c(Cc3ccncc3)cc3cccnc32)c1 [Example No. 3, 1-(3-Cyanophenyl)-3-(pyridin-4-ylmethyl)-1,8-naphthyridin-2(1H)-one] | 229 to 230 | > 100 | > 100 | 1.2 | 3.9 |
| O=c1c(CCCc2ccncc2)cc2cccnc2n1-c1cccc(Cl)c1 [Example 9, 1-(3-Chlorophenyl)-3-[3-(pyridin-4-yl)propyl]-1,8-naphthyridin-2(1H)-one] | 148 to 149 |  |  |  |  |
| O=c1c(CCCCc2ccccn2)cc2cccnc2n1-c1cccc([N+](=O)[O-])c1 [Example No. 13, 1-(3-Nitrophenyl)-3-[4-(pyridin-2-yl)butyl]-1,8-naphthyridin-2(1H)-one] | 163 to 165 | 62 | 60 | 1.2 | 13 |
| O=c1c(Cc2ccncc2)cc2cccnc2n1-c1cccc([N+](=O)[O-])c1 [Example 4, 1-(3-Nitrophenyl)-3-(pyridin-4-ylmethyl)-1,8-naphthyridin-2(1H)-one] | 230 |  |  |  |  |
| O=c1c(CCCCCCCc2ccncc2)cc2cccnc2n1-c1cccc([N+](=O)[O-])c1 [Example 18, 1-(3-Nitrophenyl)-3-[7-(pyridin-4-yl)heptyl]-1,8-naphthyridin-2(1H)-one] | 189 to 192 |  |  |  |  |
| O=c1c(CCCc2ccco2)cc2cccnc2n1-c1cccc([N+](=O)[O-])c1 [Example 20, 1-(3-Nitrophenyl)-3-[3-(2-furyl)propyl]-1,8-naphthyridin-2(1H)-one] | 166 to 167 |  |  |  |  |
| O=c1c(CCc2nc3ccccc3s2)cc2cccnc2n1-c1cccc([N+](=O)[O-])c1 [Example 29, 1-(3-Nitrophenyl)-3-[2-(benzothiazol-2-yl)ethyl]-1,8-naphthyridin-2(1H)-one] | 178 to 179 |  |  |  |  |
| O=c1c(CCCCc2nc3ccccc3s2)cc2cccnc2n1-c1cccc([N+](=O)[O-])c1 [Example 22, 1-(3-Nitrophenyl)-3-[4-(benzothiazol-2-yl)butyl]-1,8-naphthyridin-2(1H)-one] | 167.5 to 169.5 |  |  |  |  |
| O=c1c(CCCc2nc3ccccc3s2)cc2cccnc2n1-c1cccc([N+](=O)[O-])c1 [Example 30, 1-(3-Nitrophenyl)-3-[3-(benzothiazol-2-yl)propyl]-1,8-naphthyridin-2(1H)-one] | 185 to 186 |  |  |  |  |
| Cc1ccc2cc(CCCc3ccncc3)c(=O)n(-c3cccc([N+](=O)[O-])c3)c2n1 [Example 11, 7-Methyl-1-(3-nitrophenyl)-3-[3-(pyridin-4-yl)propyl]-1,8-naphthyridin-2(1H)-one] | 165 to 166 |  |  |  |  |
| O=c1c(CCCc2ccccn2)cc2cccnc2n1-c1cccc([N+](=O)[O-])c1 [Example 28, 1-(3-Nitrophenyl)-3-[3-(pyridin-2-yl)propyl]-1,8-naphthyridin-2(1H)-one] | 201 to 202 |  |  |  |  |
| O=c1c(CCCc2ccoc2)cc2cccnc2n1-c1cccc([N+](=O)[O-])c1 [Example 21, 1-(3-Nitrophenyl)-3-[3-(3-furyl)propyl]-1,8-naphthyridin-2(1H)-one] | 185 to 186 |  |  |  |  |
| N#Cc1cccc(-n2c(=O)c(CCCc3ccncc3)cc3cccnc32)c1 [Example 25, 1-(3-Cyanophenyl)-3-[3-(pyridin-4-yl)propyl]-1,8-naphthyridin-2(1H)-one] | 202 to 203.5 |  |  |  |  |
| O=c1c(CCCc2nccs2)cc2cccnc2n1-c1cccc([N+](=O)[O-])c1 [Example 31, 1-(3-Nitrophenyl)-3-[3-(thiazol-2-yl)propyl]-1,8-naphthyridin-2(1H)-one] | 198 to 199 |  |  |  |  |
| O=c1c(CCCCc2ccncc2)cc2cccnc2n1-c1cccc([N+](=O)[O-])c1 [Example No. 15, 1-(3-Nitrophenyl)-3-[4-(pyridin-4-yl)butyl]-1,8-naphthyridin-2(1H)-one] | 168.8 to 169.6 | 100 | 47 | 1.4 | 8.7 |
| O=c1c(CCc2cccs2)cc2cccnc2n1-c1cccc([N+](=O)[O-])c1 [Example 19, 1-(3-Nitrophenyl)-3-[2-(2-thienyl)ethyl]-1,8-naphthyridin-2(1H)-one] | 175 to 176 |  |  |  |  |
| CS(=O)(=O)c1cccc(-n2c(=O)c(CCCc3ccncc3)cc3cccnc32)c1 [Example 26, 1-(3-Methylsulfonylphenyl)-3-[3-(pyridin-4-yl)propyl]-1,8-naphthyridin-2(1H)-one] | 127 to 131 |  |  |  |  |
| CSc1cccc(-n2c(=O)c(CCCc3ccncc3)cc3ccc(C)nc32)c1 [Example 12, 7-Methyl-1-(3-methylthiophenyl)-3-[3-(pyridin-4-yl)propyl]-1,8-naphthyridin-2(1H)-one] | 158 to 159 |  |  |  |  |
| O=c1c(CCCCCc2ccncc2)cc2cccnc2n1-c1cccc([N+](=O)[O-])c1 [Example No. 17, 1-(3-Nitrophenyl)-3-[5-(pyridin-4-yl)pentyl]-1,8-naphthyridin-2(1H )-one] | 188.8 to 189.6 | > 100 | > 100 | 2.2 | > 100 |
